Measurements reported in PubChem BioAssay AID1259407 (Chemical Carcinogenesis Research Information System (CCRIS), 2018).
Active and inactive are the calls of the source. No rule for the calls is given here.

Test system: CCRIS mutagenicity, Ames/micronucleus/aberration tests
Experiment: CCRIS mutagenicity studies

Measured: mutagenic call

C=CCc1ccc2c(c1)OCO2
active: Test System: AMES SALMONELLA TYPHIMURIUM, Strain/Indicator: TA1535, Metabolic Activation: RAT, LIVER, S-9, AROCLOR 1254, PAPS, Method: STANDARD PLATE active; positive | Test System: CHINESE HAMSTER V-79, Strain/Indicator: V-79/6-THIOGUANINE, Metabolic Activation: NONE, Method: REPLATING active; positive | Test System: MOUSE LYMPHOMA, Strain/Indicator: L5178Y (TK+/+)/OUABAIN, Metabolic Activation: NONE, Method: SUSPENSION/PLATE active; positive | Test System: MOUSE LYMPHOMA, Strain/Indicator: L5178Y (TK+/+)/OUABAIN, Metabolic Activation: RAT LIVER S-9, AROCLOR 1254, Method: SUSPENSION/PLATE active; positive | Test System: MOUSE LYMPHOMA, Strain/Indicator: L5178Y (TK+/-)/TRIFLUROTHYMIDINE, Metabolic Activation: NONE, Method: SUSPENSION/PLATE active; positive | Test System: MOUSE LYMPHOMA, Strain/Indicator: L5178Y (TK+/TK-), Metabolic Activation: RAT, LIVER, S-9, Method: SUSPENSION/PLATE active; positive | Test System: UDS RAT HEPATOCYTES, Strain/Indicator: THY INCORP, Metabolic Activation: NONE, Method: LIQUID SCINTILLATION COUNTING active; positive
inactive: Test System: AMES SALMONELLA TYPHIMURIUM, Strain/Indicator: TA1535, Metabolic Activation: NONE, Method: STANDARD PLATE inactive; negative | Test System: AMES SALMONELLA TYPHIMURIUM, Strain/Indicator: TA1535, Metabolic Activation: PAPS, Method: STANDARD PLATE inactive; negative | Test System: AMES SALMONELLA TYPHIMURIUM, Strain/Indicator: TA1535, Metabolic Activation: RAT LIVER S-9, AROCLOR 1254 (10%), Method: PREINCUBATION inactive; negative | Test System: AMES SALMONELLA TYPHIMURIUM, Strain/Indicator: TA1535, Metabolic Activation: RAT LIVER S-9, AROCLOR 1254 (30%), Method: PREINCUBATION inactive; negative | Test System: AMES SALMONELLA TYPHIMURIUM, Strain/Indicator: TA1535, Metabolic Activation: RAT, LIVER, S-9, AROCLOR 1254, Method: STANDARD PLATE inactive; negative | Test System: AMES SALMONELLA TYPHIMURIUM, Strain/Indicator: TA1537, Metabolic Activation: NONE, Method: STANDARD PLATE inactive; negative | Test System: AMES SALMONELLA TYPHIMURIUM, Strain/Indicator: TA1537, Metabolic Activation: RAT, LIVER, S-9, AROCLOR 1254, Method: STANDARD PLATE inactive; negative | Test System: AMES SALMONELLA TYPHIMURIUM, Strain/Indicator: TA1538, Metabolic Activation: NONE, Method: STANDARD PLATE inactive; negative | Test System: AMES SALMONELLA TYPHIMURIUM, Strain/Indicator: TA1538, Metabolic Activation: RAT, LIVER, S-9, AROCLOR 1254, Method: STANDARD PLATE inactive; negative | Test System: AMES SALMONELLA TYPHIMURIUM, Strain/Indicator: TA2638, Metabolic Activation: RAT LIVER S-9, PHENOBARBITAL AND 5,6-BENZOFLAVONE, Method: STANDARD PLATE inactive; negative | Test System: CHINESE HAMSTER OVARY, Strain/Indicator: CHO/6-THIOGUANINE, Metabolic Activation: HAMSTER EMBRYO CELL-MEDIATED inactive; negative | Test System: CHINESE HAMSTER OVARY, Strain/Indicator: CHO/6-THIOGUANINE, Metabolic Activation: NONE inactive; negative | Test System: CHINESE HAMSTER OVARY, Strain/Indicator: CHO/OUABAIN, Metabolic Activation: HAMSTER EMBRYO CELL-MEDIATED inactive; negative | Test System: CHINESE HAMSTER OVARY, Strain/Indicator: CHO/OUABAIN, Metabolic Activation: NONE inactive; negative | Test System: CHINESE HAMSTER V-79, Strain/Indicator: V-79 (HGPRT)/6-THIOGUANINE, Metabolic Activation: NONE inactive; negative | Test System: CHINESE HAMSTER V-79, Strain/Indicator: V-79 (HGPRT)/6-THIOGUANINE, Metabolic Activation: RAT, LIVER, S-9, PHENOBARBITAL AND BETA-NAPHTHOFLAVONE inactive; negative | Test System: CHINESE HAMSTER V-79, Strain/Indicator: V-79/OUABAIN, Metabolic Activation: HAMSTER EMBRYO CELL-MEDIATED inactive; negative | Test System: CHINESE HAMSTER V-79, Strain/Indicator: V-79/OUABAIN, Metabolic Activation: NONE inactive; negative | Test System: CHINESE HAMSTER V-79, Strain/Indicator: V-79/OUABAIN, Metabolic Activation: RAT, LIVER, S-15, PHENOBARBITAL AND 5,6-BENZOFLAVONE inactive; negative | Test System: E. COLI, Strain/Indicator: WP2 (PKM101), Metabolic Activation: RAT LIVER S-9, PHENOBARBITAL AND 5,6-BENZOFLAVONE, Method: STANDARD PLATE inactive; negative | Test System: E. COLI, Strain/Indicator: WP2 UVRA (PKM101), Metabolic Activation: RAT LIVER S-9, PHENOBARBITAL AND 5,6-BENZOFLAVONE, Method: STANDARD PLATE inactive; negative | Test System: MOUSE LYMPHOMA, Strain/Indicator: L5178Y (TK+/-)/TRIFLUROTHYMIDINE, Metabolic Activation: RAT LIVER S-9, AROCLOR 1254, Method: SUSPENSION/PLATE inactive; negative | Test System: MOUSE LYMPHOMA, Strain/Indicator: L5178Y (TK+/TK-), Metabolic Activation: NONE, Method: SUSPENSION/PLATE inactive; negative
